# Reference: ChEMBL document CHEMBL3853322, “Thrombospondin-1 Mimetic Agonist Peptides Induce Selective Death in Tumor Cells: Design, Synthesis, and Structure-Activity Relationship Studies” (J Med Chem, 2016)
# The source made the active and inactive calls. No cut-off for these calls is given here. Square brackets hold non-standard residues; d marks the D form. Peptide text beside a SMILES is read from it. * marks the point of attachment. X1 = N=C(N)NCCC[C@H](CN)C(=O)*; β3hK = NCCCC[C@H](N)CC(=O)O
# Columns and labels:
# [1] = Induction of cell death in human RPMI8866 cells at 300 uM after 2 hrs by Annexin-V/propidium iodide staining based FACS analysis; assay type: functional, RPMI-8866
# [2] = Induction of cell death in human HeLa cells at 300 uM after 2 hrs by Annexin-V/propidium iodide staining based FACS analysis; assay type: functional
# [3] = Induction of cell death in human Raji cells at 300 uM after 2 hrs by Annexin-V/propidium iodide staining based FACS analysis; assay type: functional
# [4] = Induction of cell death in human Jurkat cells at 300 uM after 2 hrs by Annexin-V/propidium iodide staining based FACS analysis; assay type: functional
# [5] = Induction of cell death in human MEC1 cells at 300 uM after 2 hrs by Annexin-V/propidium iodide staining based FACS analysis; assay type: functional
# [6] = Induction of cell death in human A549 cells at 300 uM after 2 hrs by Annexin-V/propidium iodide staining based FACS analysis; assay type: functional
# [7] = Drug degradation in human serum up to 5 mins by HPLC analysis; assay type: ADME
# [8] = Induction of cell death in human HBL100 cells at 300 uM after 2 hrs by Annexin-V/propidium iodide staining based FACS analysis; assay type: functional, HBL-100
# [9] = Induction of programmed cell death in human MEC1 cells at 200 uM after 2 hrs by Annexin-V/propidium iodide staining based FACS analysis; assay type: functional
# CLL [10] = experiment: Induction of programmed cell death in human CLL cells at 50 to 400 uM after 2 hrs by Annexin-V/propidium iodide staining based FACS analysis; assay type: functional
# [11] = Induction of cell death in human MCF7 cells at 300 uM after 2 hrs by Annexin-V/propidium iodide staining based FACS analysis; assay type: functional
# CLL [12] = experiment: Induction of programmed cell death in human CLL cells harboring TP53 17p deletion mutant at 50 to 400 uM after 2 hrs by Annexin-V/propidium iodide staining based FACS analysis; assay type: functional
# [13] = Induction of cell death in human U937 cells at 300 uM after 2 hrs by Annexin-V/propidium iodide staining based FACS analysis; assay type: functional, U-937
# [14] = Induction of cell death in human LNCAP cells at 300 uM after 2 hrs by Annexin-V/propidium iodide staining based FACS analysis; assay type: functional
# [15] = Cytotoxicity against human B lymphocytes assessed as cell death at 50 to 400 uM after 2 hrs by Annexin-V/propidium iodide staining based FACS analysis; assay type: toxicity
# CLL [16] = experiment: Induction of programmed cell death in human CLL cells harboring ATM 11q deletion mutant at 50 to 400 uM after 2 hrs by Annexin-V/propidium iodide staining based FACS analysis; assay type: functional
# [17] = Induction of cell death in human AU565 cells at 300 uM after 2 hrs by Annexin-V/propidium iodide staining based FACS analysis; assay type: functional
# [18] = Induction of cell death in human RPMI8226 cells at 300 uM after 2 hrs by Annexin-V/propidium iodide staining based FACS analysis; assay type: functional, RPMI-8226
# [19] = Induction of cell death in human MDA-MB-231 cells at 300 uM after 2 hrs by Annexin-V/propidium iodide staining based FACS analysis; assay type: functional
# [20] = Induction of cell death in human OVCAR10 cells at 300 uM after 2 hrs by Annexin-V/propidium iodide staining based FACS analysis; assay type: functional
# [21] = Induction of cell death in human JM1 cells at 300 uM after 2 hrs by Annexin-V/propidium iodide staining based FACS analysis; assay type: functional
# [22] = Aqueous solubility of compound in 50 mM sodium succinate buffer at >1 mM at pH 5 by 1D 1H NMR spectroscopic analysis; assay type: physicochemical
# [23] = Induction of cell death in human CEM cells at 300 uM after 2 hrs by Annexin-V/propidium iodide staining based FACS analysis; assay type: functional, CCRF-CEM
# [24] = Induction of cell death in human Ramos cells at 300 uM after 2 hrs by Annexin-V/propidium iodide staining based FACS analysis; assay type: functional
# [25] = Aqueous solubility of compound in 50 mM sodium succinate buffer at 2 mM at pH 5 by 1D 1H NMR spectroscopic analysis; assay type: physicochemical; details: buffer, pH 5, 2000 µM
# [26] = Metabolic stability in human serum at 10 mg/ml at 37 degC after 2 hrs by HPLC analysis; assay type: ADME
# HCT-116 [27] = experiment: Induction of apoptosis in human HCT116 cells assessed as late apoptotic cells at 200 uM after 2 hrs by Annexin-V/propidium iodide staining based FACS analysis (reference value: 5%); assay type: functional
# A549 [28] = experiment: Induction of apoptosis in human A549 cells assessed as late apoptotic cells at 200 uM after 2 hrs by Annexin-V/propidium iodide staining based FACS analysis (reference value: 5%); assay type: functional
# A549 [29] = experiment: Induction of apoptosis in human A549 cells assessed as early apoptotic cells at 200 uM after 2 hrs by Annexin-V/propidium iodide staining based FACS analysis (reference value: 2%); assay type: functional
# MCF7 [30] = experiment: Induction of apoptosis in human MCF7 cells assessed as early apoptotic cells at 200 uM after 2 hrs by Annexin-V/propidium iodide staining based FACS analysis (reference value: 4%); assay type: functional
# MCF7 [31] = experiment: Induction of apoptosis in human MCF7 cells assessed as late apoptotic cells at 200 uM after 2 hrs by Annexin-V/propidium iodide staining based FACS analysis (reference value: 22%); assay type: functional
# [32] = Induction of programmed cell death in human HCT116 cells at 200 uM after 2 hrs by Annexin-V/propidium iodide staining based FACS analysis; assay type: functional, HCT-116
# [33] = Induction of programmed cell death in human MEC1 cells at 50 uM after 2 hrs by Annexin-V/propidium iodide staining based FACS analysis; assay type: functional
# HCT-116 [34] = experiment: Induction of apoptosis in human HCT116 cells assessed as early apoptotic cells at 200 uM after 2 hrs by Annexin-V/propidium iodide staining based FACS analysis (reference value: 4%); assay type: functional
# [35] = Induction of programmed cell death in human A549 cells at 50 uM after 2 hrs by Annexin-V/propidium iodide staining based FACS analysis; assay type: functional
# HCT-116 [36] = experiment: Induction of programmed cell death in human HCT116 cells after 2 hrs by Annexin-V/propidium iodide staining based FACS analysis; assay type: functional
# A549 [37] = experiment: Induction of programmed cell death in human A549 cells after 2 hrs by Annexin-V/propidium iodide staining based FACS analysis; assay type: functional
# [38] = Induction of programmed cell death in human HCT116 cells at 50 uM after 2 hrs by Annexin-V/propidium iodide staining based FACS analysis; assay type: functional, HCT-116
# MCF7 [39] = experiment: Induction of programmed cell death in human MCF7 cells after 2 hrs by Annexin-V/propidium iodide staining based FACS analysis; assay type: functional
molecule,measurement,setting,value
CSCC[C@H](NC(=O)[C@@H](NC(=O)[C@@H](NC(=O)[C@H](Cc1ccc(O)cc1)NC(=O)[C@H](Cc1ccccc1)NC(=O)[C@H](CCCNC(=N)N)NC(=O)[C@@H](N)CCCCN)C(C)C)C(C)C)C(=O)N[C@@H](Cc1c[nH]c2ccccc12)C(=O)N[C@@H](CCCCN)C(=O)N[C@@H](CCCCN)C(=O)O,Activity,[1],30%
same,Activity,[2],30%
same,Activity,[3],30%
same,Activity,[4],30%
same,Activity,[5],30%
same,Activity,[6],30%
same,Stability,[7],Unstable
same,Activity,[8],30%
same,Activity,[9],23%
same,Activity,CLL [10],Active
same,Activity,[11],30%
same,Activity,CLL [12],Active
same,Activity,[13],30%
same,Activity,[14],30%
same,Activity,[15],Non-Toxic
same,Activity,CLL [16],Active
same,Activity,[17],30%
same,Activity,[18],30%
same,Activity,[19],30%
same,Activity,[20],30%
same,Activity,[21],30%
same,solubility,[22],Soluble
same,Activity,[23],30%
same,Activity,[24],30%
CSCC[C@H](NC(=O)[C@@H](NC(=O)[C@@H](NC(=O)[C@H](Cc1ccc(O)cc1)NC(=O)[C@H](Cc1ccccc1)NC(=O)[C@H](C)NC(=O)[C@H](N)CCCCN)C(C)C)C(C)C)C(=O)N[C@@H](Cc1c[nH]c2ccccc12)C(=O)N[C@@H](CCCCN)C(=O)N[C@H](CCCCN)C(=O)O (H-[dK]AFYVVMWK[dK]-OH),Activity,[9],44%
CSCC[C@H](NC(=O)[C@@H](NC(=O)[C@@H](NC(=O)[C@H](C)NC(=O)[C@H](Cc1ccccc1)NC(=O)[C@H](CCCNC(=N)N)NC(=O)[C@H](N)CCCCN)C(C)C)C(C)C)C(=O)N[C@@H](Cc1c[nH]c2ccccc12)C(=O)N[C@@H](CCCCN)C(=O)N[C@H](CCCCN)C(=O)O,Activity,[9],0%
CSCC[C@H](NC(=O)[C@@H](NC(=O)[C@@H](NC(=O)[C@H](Cc1ccc(O)cc1)NC(=O)[C@H](Cc1ccccc1)NC(=O)[C@@H](CN)CCCNC(=N)N)C(C)C)C(C)C)C(=O)N[C@@H](Cc1c[nH]c2ccccc12)C(=O)N[C@@H](CCCCN)CC(=O)O (X1-FYVVMW[β3hK]-OH),solubility,[25],Insoluble
same,Stability,[26],Stable
CSCC[C@H](NC(=O)[C@@H](NC(=O)[C@@H](NC(=O)[C@H](Cc1ccc(O)cc1)NC(=O)[C@H](Cc1ccccc1)NC(=O)[C@H](CCCNC(=N)N)NC(=O)[C@H](N)CCCCN)C(C)C)C(C)C)C(=O)N[C@@H](Cc1c[nH]c2ccccc12)C(=O)N[C@@H](C)C(=O)N[C@H](CCCCN)C(=O)O (H-[dK]RFYVVMWA[dK]-OH),Activity,[9],46%
H-KRFYGGMWKK-OH,Activity,[9],2%
CSCC[C@H](NC(=O)[C@@H](NC(=O)[C@@H](NC(=O)[C@H](Cc1ccc(O)cc1)NC(=O)[C@H](Cc1ccccc1)NC(=O)[C@H](CCCNC(=N)N)NC(=O)[C@H](N)CCCCN)C(C)C)C(C)C)C(=O)N[C@@H](Cc1c[nH]c2ccccc12)C(=O)N[C@@H](CCCCN)C(=O)N[C@H](CCCCN)C(=O)O,Activity,HCT-116 [27],77%
same,Activity,A549 [28],60%
same,Activity,A549 [29],5%
same,Activity,MCF7 [30],6%
same,Activity,MCF7 [31],52%
same,Activity,[9],63%
same,Activity,[32],80%
same,Activity,[33],25%
same,Activity,HCT-116 [34],4%
same,Activity,[35],25%
same,Stability,[26],Stable
same,Activity,HCT-116 [36],Dose-dependent effect
same,Activity,A549 [37],Dose-dependent effect
same,solubility,[22],Soluble
same,Activity,[38],38%
same,Activity,MCF7 [39],Dose-dependent effect
CSCC[C@H](NC(=O)[C@@H](NC(=O)[C@@H](NC(=O)[C@H](Cc1ccc(O)cc1)NC(=O)[C@H](Cc1ccccc1)NC(=O)[C@H](CCCNC(=N)N)NC(=O)[C@H](N)CCCCN)C(C)C)C(C)C)C(=O)N[C@@H](C)C(=O)N[C@@H](CCCCN)C(=O)N[C@H](CCCCN)C(=O)O (H-[dK]RFYVVMAK[dK]-OH),Activity,[9],35%
